The values that follow come from PubChem BioAssay (NCI).

Structures are written as SMILES.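 Following 48 hours of exposure in 96-well plates, responses at five concentrations were used to interpolate endpoints linearly. GI50: concentration for 50% inhibition of growth. Definition used: TGI = concentration required for complete inhibition of growth.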 Bounds are passed on as bounds.

Among the test systems are KM20L2 colon; RXF-631 renal; DMS 114 small cell lung; SNB-78 CNS; XF 498 CNS.
What all share (test): NCI anticancer screen, dose series, 48 h

For the molecule `Cc1cc(NCCCCCCCNc2cc(C)nc3cc([N+](=O)[O-])ccc23)c2ccc([N+](=O)[O-])cc2n1`, the TGI was 32 µM with KM20L2 colon; above 45.9 µM with RXF-631 renal; 3.28 µM with DMS 114 small cell lung; above 31.6 µM in the test with SNB-78 CNS; above 48.1 µM with XF 498 CNS.

`COc1cc2c(cc1OC)C1(c3ccc(Cl)cc3)ON=C(c3ccccc3)N1CS2` (stereo not drawn): the TGI in the test with KM20L2 colon, in the test with RXF-631 renal, with DMS 114 small cell lung and in the test with SNB-78 CNS was above 100 µM in each case.

With `O=C(N/N=C/c1cc(Cl)cc(Cl)c1O)c1ccccc1O`, in the test with KM20L2 colon, the GI50 is 4.85 µM.

Consider `CC(NC(C)(C)C)C(=O)c1cccc(Cl)c1` (stereo not drawn), for which the TGI with KM20L2 colon, in the test on RXF-631 renal, with DMS 114 small cell lung and in the test with XF 498 CNS was above 100 µM each time.

As for `O=C(Cc1ccccc1)NN1C(=O)C(Cl)C1c1ccccc1O` (stereo not drawn), the TGI is above 100 µM in the test with KM20L2 colon, 46.5 µM in the test with DMS 114 small cell lung, above 100 µM with SNB-78 CNS and above 100 µM with XF 498 CNS.

Turning to `CCOC(=O)CSc1nnc(C(Sc2nc(-c3ccccc3)c(-c3ccccc3)[nH]2)C(C)C)n1-c1ccccc1` (stereo not drawn), the TGI in the test on KM20L2 colon, with DMS 114 small cell lung and in the test on SNB-78 CNS was above 10 µM throughout.

Consider `COC(=O)CC1NC(=O)C1C1(C)OCCO1` (stereo not drawn), for which the TGI in the test with KM20L2 colon, in the test with DMS 114 small cell lung and with XF 498 CNS was above 100 µM each time.

In the case of `Nc1ccc(C(=O)NN2C(=O)C(Cl)C2c2ccccc2)cc1` (stereo not drawn), the TGI with KM20L2 colon, with DMS 114 small cell lung, with SNB-78 CNS and in the test on XF 498 CNS was above 100 µM each time.

For `CCCc1ccc(NCc2cc(OC)c(OC)c(OC)c2)cc1`, the TGI in the test with KM20L2 colon is above 100 µM; in the test with DMS 114 small cell lung, 29.8 µM; in the test on SNB-78 CNS, above 100 µM; with XF 498 CNS, 52.8 µM.

With `[N-]=[N+]=C1C(=O)C2CC3CC(C2)CC1C3`, the TGI in the test with KM20L2 colon, in the test with DMS 114 small cell lung, with SNB-78 CNS and in the test on XF 498 CNS was above 100 µM each time.

For `N#C/C(=C\c1c[nH]c2ccccc12)C(=O)c1ccc(O)c(O)c1`, the TGI in the test with KM20L2 colon and in the test on XF 498 CNS was above 100 µM throughout.
